# Measurements published in patent US6369080B2, “Selective factor Xa inhibitors” (COR Therapeutics, Inc., priority 1996, dated 2002).
# Target: T1, thrombin (Homo sapiens, UniProt P00734)
# T1 construct: converts the zymogen prothrombin into the active procoagulant thrombin
# Assay: Thrombin amidolytic assay (chromogenic substrate Chromozym TH)
# Type: biochemical
# Details: room temperature, pH 7.5, 5 minutes preincubation
# Experimental: The compounds of the present invention are first dissolved in a buffer to give solutions containing concentrations such that assay concentrations range from 0-100 μM. In assays for thrombin, prothrombinase and factor Xa, a synthetic chromogenic substrate would be added to a solution containing a test compound and the enzyme of interest and the residual catalytic activity of that enzyme would then be determined spectrophotometrically.
# The IC50 of a compound is determined from the substrate turnover. The IC50 is the concentration of test compound giving 50% inhibition of the substrate turnover.
# Factor Xa and thrombin assays are performed at room temperature, in 0.02 M Tris HCl buffer, pH 7.5, containing 0.15 M NaCl. The rates of hydrolysis of the paranitroanilide substrate S-2765 (Chromogenix) for factor Xa, and the substrate Chromozym TH (Boehringer Mannheim) for thrombin following preincubation of the enzyme with the test compound for 5 minutes at room temperature are determined using a Softmax 96-well plate reader (Molecular Devices), monitored at 405 nm to measure the time dependent appearance of p-nitroanilide.
structure (smiles),measurement,value
N=C(N)NCCC[C@H](NC(=O)Cn1cccc(NS(=O)(=O)Cc2ccccc2)c1=O)C(=O)c1nccs1 [Example 9],IC50,8 nM
